Patent US8906909B2 (Curis, Inc., priority 2009, dated 2014)

Legend:
[1] = test system: HDACs (HeLa cell nuclear extracts); assay: HDAC enzymatic activity, Biomol Color de Lys system; type: biochemical
Method in brief: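 IC50 from sigmoidal dose-response fits of fluorescence (Ex 350–380, Em 440–460 nm). Compounds in DMSO dilution series incubated 1 h at 25 °C with HeLa nuclear extract HDACs and colorimetric substrate, pH 8.0 Tris/Cl buffer with NaCl, KCl, MgCl2, before developer termination.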

Row | SMILES | melting point | IC50 [1]
1 | CN(Cc1cc2nc(-c3ccc(Cl)cc3)nc(N3CCOCC3)c2s1)c1ncc(C(=O)NO)cn1 [Compound 147, 2-(((2-(4-chlorophenyl)-4-morpholinothieno[3,2-d]pyrimidin-6-yl)methyl)(methyl)amino)-N-hydroxypyrimidine-5-carboxamide] | 153 °C | < 100 nM
2 | CC(C)c1ccc(-c2nc(N3CCOCC3)c3sc(CN(C)c4ncc(C(=O)NO)cn4)cc3n2)cc1 [Compound 148, N-hydroxy-2-(((2-(4-isopropylphenyl)-4-morpholinothieno[3,2-d]pyrimidin-6-yl)methyl)(methyl)amino)pyrimidine-5-carboxamide] | 155 °C (dec.) | < 100 nM
3 | CN(Cc1cc2nc(-c3ccc(S(C)(=O)=O)cc3)nc(N3CCOCC3)c2s1)c1ncc(C(=O)NO)cn1 [Compound 149, N-hydroxy-2-(methyl((2-(4-(methylsulfonyl)phenyl)-4-morpholinothieno[3,2-d]pyrimidin-6-yl)methyl)amino)pyrimidine-5-carboxamide] | 206 to 208 °C | < 100 nM
4 | CNc1ccc(-c2nc(N3CCOCC3)c3sc(CN(C)c4ncc(C(=O)NO)cn4)cc3n2)cc1 [Compound 151, N-hydroxy-2-(methyl((2-(4-(methylamino)phenyl)-4-morpholinothieno[3,2-d]pyrimidin-6-yl)methyl)amino)pyrimidine-5-carboxamide] | 218 to 220 °C | < 100 nM
5 | CN(C)c1ccc(-c2nc(N3CCOCC3)c3sc(CN(C)c4ncc(C(=O)NO)cn4)cc3n2)cc1 [Compound 152, 2-(((2-(4-(dimethylamino)phenyl)-4-morpholinothieno[3,2-d]pyrimidin-6-yl)methyl)(methyl)amino)-N-hydroxypyrimidine-5-carboxamide] | 208 to 210 °C | < 100 nM
6 | CCNc1ccc(-c2nc(N3CCOCC3)c3sc(CN(C)c4ncc(C(=O)NO)cn4)cc3n2)cc1 [Compound 153, 2-(((2-(4-(ethylamino)phenyl)-4-morpholinothieno[3,2-d]pyrimidin-6-yl)methyl)(methyl)amino)-N-hydroxypyrimidine-5-carboxamide] | 185 to 187 °C | < 100 nM
7 | CCN(CC)c1ccc(-c2nc(N3CCOCC3)c3sc(CN(C)c4ncc(C(=O)NO)cn4)cc3n2)cc1 [Compound 154, 2-(((2-(4-(Diethylamino)phenyl)-4-morpholinothieno[3,2-d]pyrimidin-6-yl)methyl)(methyl)amino)-N-hydroxypyrimidine-5-carboxamide] | 192 to 196 °C | < 100 nM
8 | CN(Cc1cc2nc(-c3ccc(N4CCCC4)cc3)nc(N3CCOCC3)c2s1)c1ncc(C(=O)NO)cn1 [Compound 155, N-hydroxy-2-(methyl((4-morpholino-2-(4-(pyrrolidin-1-yl)phenyl)thieno[3,2-d]pyrimidin-6-yl)methyl)amino)pyrimidine-5-carboxamide] | 187 to 192 °C | < 100 nM
9 | CN(Cc1cc2nc(-c3ccc(N)c(N)c3)nc(N3CCOCC3)c2s1)c1ncc(C(=O)NO)cn1 [Compound 156, 2-(((2-(3,4-diaminophenyl)-4-morpholinothieno[3,2-d]pyrimidin-6-yl)methyl)(methyl)amino)-N-hydroxypyrimidine-5-carboxamide] | 222 to 225 °C | < 100 nM
10 | CN(Cc1cc2nc(-c3ccc4c(c3)NCCO4)nc(N3CCOCC3)c2s1)c1ncc(C(=O)NO)cn1 [Compound 182, 2-(((2-(3,4-dihydro-2H-benzo[b][1,4]oxazin-6-yl)-4-morpholinothieno[3,2-d]pyrimidin-6-yl)methyl)(methyl)amino)-N-hydroxypyrimidine-5-carboxamide] | 170 to 183 °C | < 100 nM
11 | CN(Cc1cc2nc(-c3cn[nH]c3)nc(N3CCOCC3)c2s1)c1ncc(C(=O)NO)cn1 [Compound 196, N-hydroxy-2-(methyl((4-morpholino-2-(1H-pyrazol-4-yl)thieno[3,2-d]pyrimidin-6-yl)methyl)amino)pyrimidine-5-carboxamide] | 214 to 217 °C | < 100 nM
12 | CN(Cc1cc2nc(-c3cc[nH]c3)nc(N3CCOCC3)c2s1)c1ncc(C(=O)NO)cn1 [Compound 197, N-hydroxy-2-(methyl((4-morpholino-2-(1H-pyrrol-3-yl)thieno[3,2-d]pyrimidin-6-yl)methyl)amino)pyrimidine-5-carboxamide] | 175 to 189 °C | < 100 nM
13 | Cc1ccc(-c2nc(N3CCOCC3)c3sc(CN(C)c4ncc(C(=O)NO)cn4)cc3n2)cc1 [Compound 201, N-hydroxy-2-(methyl((4-morpholino-2-p-tolylthieno[3,2-d]pyrimidin-6-yl)methyl)amino)pyrimidine-5-carboxamide] | 170 to 172 °C | < 100 nM
14 | CN(Cc1cc2nc(-c3ccc(C(F)(F)F)cc3)nc(N3CCOCC3)c2s1)c1ncc(C(=O)NO)cn1 [Compound 202, N-hydroxy-2-(methyl((4-morpholino-2-(4-(trifluoromethyl)phenyl)thieno[3,2-d]pyrimidin-6-yl)methyl)amino)pyrimidine-5-carboxamide] | 222 to 223 °C | < 100 nM
15 | Nc1ccc(-c2nc(N3CCOCC3)c3sc(CNc4ncc(C(=O)NO)cn4)cc3n2)cc1 [Compound 211, 2-((2-(4-aminophenyl)-4-morpholinothieno[3,2-d]pyrimidin-6-yl)methylamino)-N-hydroxypyrimidine-5-carboxamide] | 217 to 223 °C | < 100 nM
16 | Nc1ncc(-c2nc(N3CCOCC3)c3sc(NS(=O)(=O)c4ccc(/C=C/C(=O)NO)cc4)cc3n2)cn1 [Compound 217, (E)-3-(4-(N-(2-(2-aminopyrimidin-5-yl)-4-morpholinothieno[3,2-d]pyrimidin-6-yl)sulfamoyl)phenyl)-N-hydroxyacrylamide] | > 300 °C | < 100 nM
17 | Nc1ncc(-c2nc(N3CCOCC3)c3sc(NS(=O)(=O)c4cccc(/C=C/C(=O)NO)c4)cc3n2)cn1 [Compound 218, (E)-3-(3-(N-(2-(2-aminopyrimidin-5-yl)-4-morpholinothieno[3,2-d]pyrimidin-6-yl)sulfamoyl)phenyl)-N-hydroxyacrylamide] | > 300 °C | < 100 nM
18 | COc1ccc(-c2nc(N3CCOCC3)c3sc(NS(=O)(=O)c4cccc(/C=C/C(=O)NO)c4)cc3n2)cn1 [Compound 221, (E)-N-hydroxy-3-(3-(N-(2-(6-methoxypyridin-3-yl)-4-morpholinothieno[3,2-d]pyrimidin-6-yl)sulfamoyl)phenyl)acrylamide] | > 300 °C | < 100 nM

Now from value to molecule:

Row | melting point | IC50 [1] | SMILES
19 | 232 to 235 °C | < 100 nM | CN(Cc1cc2nc(-c3cccc4[nH]ncc34)nc(Nc3ccccc3)c2s1)c1ncc(C(=O)NO)cn1 [Compound 164, 2-(((2-(1H-indazol-4-yl)-4-(phenylamino)thieno[3,2-d]pyrimidin-6-yl)methyl)(methyl)amino)-N-hydroxypyrimidine-5-carboxamide]
20 | 200 to 203 °C | < 100 nM | CN(Cc1cc2nc(-c3cccc4[nH]ncc34)nc(Nc3ccccn3)c2s1)c1ncc(C(=O)NO)cn1 [Compound 168, 2-(((2-(1H-indazol-4-yl)-4-(pyridin-2-ylamino)thieno[3,2-d]pyrimidin-6-yl)methyl)(methyl)amino)-N-hydroxypyrimidine-5-carboxamide]
21 | 200 to 212 °C | < 100 nM | CN(Cc1cc2nc(-c3cccc4[nH]ccc34)nc(N3CCOCC3)c2s1)c1ncc(C(=O)NO)cn1 [Compound 176, 2-(((2-(1H-indol-4-yl)-4-morpholinothieno[3,2-d]pyrimidin-6-yl)methyl)(methyl)amino)-N-hydroxypyrimidine-5-carboxamide]
22 | 146 to 156 °C | < 100 nM | CN(Cc1cc2nc(-c3cccc4c3CCN4)nc(N3CCOCC3)c2s1)c1ncc(C(=O)NO)cn1 [Compound 177, N-hydroxy-2-(((2-(indolin-4-yl)-4-morpholinothieno[3,2-d]pyrimidin-6-yl)methyl)(methyl)amino)pyrimidine-5-carboxamide]
23 | 272 to 275 °C | < 100 nM | CN(Cc1cc2nc(-c3ccc4[nH]c(=O)[nH]c4c3)nc(N3CCOCC3)c2s1)c1ncc(C(=O)NO)cn1 [Compound 186, N-hydroxy-2-(methyl((4-morpholino-2-(2-oxo-2,3-dihydro-1H-benzo[d]imidazol-5-yl)thieno[3,2-d]pyrimidin-6-yl)methyl)amino)pyrimidine-5-carboxamide]
24 | 231 to 239 °C | < 100 nM | CN(Cc1cc2nc(-c3ccc4[nH]cnc4c3)nc(N3CCOCC3)c2s1)c1ncc(C(=O)NO)cn1 [Compound 187, 2-(((2-(1H-benzo[d]imidazol-5-yl)-4-morpholinothieno[3,2-d]pyrimidin-6-yl)methyl)(methyl)amino)-N-hydroxypyrimidine-5-carboxamide]
25 | 270 °C (dec.) | < 100 nM | CN(Cc1cc2nc(-c3ccc4c(c3)CC(=O)N4)nc(N3CCOCC3)c2s1)c1ncc(C(=O)NO)cn1 [Compound 194, N-hydroxy-2-(methyl((4-morpholino-2-(2-oxoindolin-5-yl)thieno[3,2-d]pyrimidin-6-yl)methyl)amino)pyrimidine-5-carboxamide]
26 | 230 to 233 °C | < 100 nM | Cc1nc2ccc(-c3nc(N4CCOCC4)c4sc(CN(C)c5ncc(C(=O)NO)cn5)cc4n3)cc2[nH]1 [Compound 199, N-hydroxy-2-(methyl((2-(2-methyl-3H-benzo[d]imidazol-5-yl)-4-morpholinothieno[3,2-d]pyrimidin-6-yl)methyl)amino)pyrimidine-5-carboxamide]
27 | 168 to 170 °C | < 100 nM | CN(Cc1cc2nc(-c3ccc(F)cc3)nc(N3CCOCC3)c2s1)c1ncc(C(=O)NO)cn1 [Compound 200, 2-(((2-(4-fluorophenyl)-4-morpholinothieno[3,2-d]pyrimidin-6-yl)methyl)(methyl)amino)-N-hydroxypyrimidine-5-carboxamide]
